Source: patent US20080206761A1, “Ex Vivo Gene Expression in Whole Blood as a Model of Assessment of Individual Variation to Dietary Supplements” (priority 2005, published 2008)

Experiments:
IL-2 mRNA [1] = test: PHA-induced IL-2 mRNA expression in heparinized whole blood ex vivo; format: cell-based, human; conditions: for ΔΔCt (mean ± standard deviation, n = 3), IL-2 mRNA: supplement 30 min, concentrations per footnote; for effect on PHA-induced IL-2 expression, in words: summary over 7 subjects of Table I
Procedure: (§1) In this embodiment, phytohemagglutinin-induced gene expression of interleukin-2 (IL-2), interleukin-4 (IL-4), and tumor necrosis factor-α (TNF-α) were quantitated in the following manner. Fifty μL of heparinized whole blood was incubated with various dietary supplements for a period of 30 minutes. The following supplements were employed: vitamins A, C, and D, epigallocatechin gallate (from green tea), genistein (from soy), and curcumin (from the spice turmeric). Vitamin A is known to stimulate the immune system. […] Vitamin D appears to have protective effects against certain cancers. Epigallocatechin gallate is a powerful antioxidant, appears to reduce the multidrug resistance found in cancer cells, and preferentially induces apoptosis in neoplastic cells. Genistein has been found in some studies to have anticarcinogenic activity; possible mechanisms of action include upregulation of apoptosis, inhibition of angiogenesis, inhibition of DNA topoisomerase II and inhibition of protein tyrosine kinases. Curcumin has proapoptotic effects in neoplastic cells and interferes with the activity of the transcription factor NF-κB, which is often highly overexpressed in such cells.
(§2) After incubation with the dietary supplement, 100 μg/mL phytohemagglutinin (PHA) was added and incubation was continued for an additional 2 hours at 37° C. The concentration of each dietary supplement (see Table I, note) was slightly higher than reported blood levels. Then mRNA was purified, cDNA was synthesized, and the levels of IL-2, IL-4, and TNF-α were quantitated by TaqMan real time polymerase chain reaction (PCR) (see Holland, et al., “Detection of specific polymerase chain reaction product by utilizing the 5′ to 3′ exonuclease activity of Thermus aquaticus DNA polymerase,” Proc Natl Acad Sci USA 1991; 88: 7276-80), as described below.
(§3) The mRNA and cDNA were prepared from the whole blood that was exposed to the dietary components, as well as the whole blood which remained unexposed. In brief, home-made 96-well filterplates were placed over collection plates, and 150 μl 5 mM Tris, pH 7.4, was applied. Following centrifugation at 120×g for 1 min at 4° C., 50 μl of blood samples were applied to each well and immediately centrifuged at 120×g for 2 min at 4° C., followed by washing of each well with 300 μl PBS once with centrifugation at 2000×g for 5 min at 4° C. Then, 60 μl stock lysis buffer, containing for example 0.5% N-Lauroylsarcosine, 4×SSC, 10 mM Tris HCl, pH 7.4, 1 mM EDTA, 0.1% IGEPAL CA-630, and 1.791 M guanidine thiocyanate, supplemented with 1% 2-mercaptoethanol (Bio Rad, Hercules, Calif., USA), 0.5 mg/ml proteinase K (Pierce, Rockford, Ill., USA), 0.1 mg/ml salmon sperm DNA (5 Prime Eppendorf/Brinkmann, Westbury, N.Y., USA), 0.1 mg/ml E. coli tRNA (Sigma), a cocktail of 10 mM each of the specific reverse primers shown in Table 2, and standard RNA34 oligonucleotides, were applied to the filterplates, followed by incubation at 37° C. for 10 min. The filterplates were then placed over oligo(dT)-immobilized microplates (GenePlate, RNAture), and centrifuged at 2000×g for 5 min at 4° C. Following overnight storage at 4° C., the microplates were washed with 100 μl plain lysis buffer 3 times, followed by 150 μl of wash buffer (0.5 M NaCl, 10 mM Tris, pH 7.4, 1 mM EDTA) 3 times at 4° C. The cDNA was directly synthesized in each well by adding 30 μl of buffer containing 1×RT-buffer, 1.25 mM each of dNTP, 4 units rRNasin, and 80 units of MMLV reverse transcriptase (Promega) (without primers), and incubation at 37° C. for 2 hours. The specific primer-primed cDNA existed in solution, and oligo(dT)-primed cDNA stayed immobilized in the microplate. […]

IL-4 mRNA [2] = test: PHA-induced IL-4 mRNA expression in heparinized whole blood ex vivo; format: cell-based, human; conditions: for ΔΔCt (mean ± standard deviation, n = 3), IL-4 mRNA: supplement 30 min, then 100 μg/mL PHA 2 h, concentrations per footnote; for effect on PHA-induced IL-4 expression, in words: summary over 7 subjects of Table I
Procedure: as §1, §2, §3

TNF-α mRNA [3] = test: PHA-induced TNF-α mRNA expression in heparinized whole blood ex vivo; format: cell-based, human; conditions: for ΔΔCt (mean ± standard deviation, n = 3), TNFα mRNA: supplement 30 min, then 100 μg/mL PHA 2 h, concentrations per footnote; for effect on PHA-induced TNF-α expression, in words: summary over 7 subjects of Table I
Procedure: as §1, §2, §3

[4] = test system: CD32A mRNA (IgG Fc receptor); test: CD32A mRNA level in leukocytes after exposure of whole blood to dietary components (no stimulating agent); format: cell-based, human; conditions: one individual; 3 hours at 37° C.; PBS control
Procedure: In brief, home-made 96-well filterplates were placed over collection plates, and 150 μl 5 mM Tris, pH 7.4, was applied. Following centrifugation at 120×g for 1 min at 4° C., 50 μl of blood samples were applied to each well and immediately centrifuged at 120×g for 2 min at 4° C., followed by washing of each well with 300 μl PBS once with centrifugation at 2000×g for 5 min at 4° C. […] The filterplates were then placed over oligo(dT)-immobilized microplates (GenePlate, RNAture), and centrifuged at 2000×g for 5 min at 4° C. Following overnight storage at 4° C., the microplates were washed with 100 μl plain lysis buffer 3 times, followed by 150 μl of wash buffer (0.5 M NaCl, 10 mM Tris, pH 7.4, 1 mM EDTA) 3 times at 4° C. […] The specific primer-primed cDNA existed in solution, and oligo(dT)-primed cDNA stayed immobilized in the microplate. […] Each gene was amplified in separate wells. The Ct was determined by analytical software (SDS, ABI).

[5] = at 8 hours after a single soy meal; cited from earlier work
TNF-α mRNA [6] = test: PHA-induced TNF-α mRNA expression in heparinized whole blood ex vivo; format: cell-based, human
IL-4 mRNA [7] = test: PHA-induced IL-4 mRNA expression in heparinized whole blood ex vivo; format: cell-based, human
IL-2 mRNA [8] = test: PHA-induced IL-2 mRNA expression in heparinized whole blood ex vivo; format: cell-based, human
[9] = Subject 1, then 100 μg/mL PHA 2 h 37° C., negative = increased expression
[10] = Subject 2, then 100 μg/mL PHA 2 h
[11] = Subject 3, then 100 μg/mL PHA 2 h
[12] = Subject 4, then 100 μg/mL PHA 2 h
[13] = Subject 5, then 100 μg/mL PHA 2 h
[14] = Subject 6, then 100 μg/mL PHA 2 h
[15] = Subject 7, then 100 μg/mL PHA 2 h
[16] = PHA alone, 2 hours at 37° C., FIG. 1A

Compound	ΔΔCt (mean ± standard deviation, n = 3), IL-2 mRNA (IL-2 mRNA [1]; [9])	ΔΔCt (mean ± standard deviation, n = 3), IL-2 mRNA (IL-2 mRNA [1]; [10])	ΔΔCt (mean ± standard deviation, n = 3), IL-2 mRNA (IL-2 mRNA [1]; [11])	ΔΔCt (mean ± standard deviation, n = 3), IL-2 mRNA (IL-2 mRNA [1]; [12])	ΔΔCt (mean ± standard deviation, n = 3), IL-2 mRNA (IL-2 mRNA [1]; [13])	ΔΔCt (mean ± standard deviation, n = 3), IL-2 mRNA (IL-2 mRNA [1]; [14])	ΔΔCt (mean ± standard deviation, n = 3), IL-2 mRNA (IL-2 mRNA [1]; [15])	ΔΔCt (mean ± standard deviation, n = 3), IL-4 mRNA (IL-4 mRNA [2]; Subject 1)	ΔΔCt (mean ± standard deviation, n = 3), IL-4 mRNA (IL-4 mRNA [2]; Subject 2)	ΔΔCt (mean ± standard deviation, n = 3), IL-4 mRNA (IL-4 mRNA [2]; Subject 3)	ΔΔCt (mean ± standard deviation, n = 3), IL-4 mRNA (IL-4 mRNA [2]; Subject 4)	ΔΔCt (mean ± standard deviation, n = 3), IL-4 mRNA (IL-4 mRNA [2]; Subject 5)	ΔΔCt (mean ± standard deviation, n = 3), IL-4 mRNA (IL-4 mRNA [2]; Subject 6)	ΔΔCt (mean ± standard deviation, n = 3), IL-4 mRNA (IL-4 mRNA [2]; Subject 7)	effect on PHA-induced IL-4 expression, in words (IL-4 mRNA [2])	ΔΔCt (mean ± standard deviation, n = 3), TNFα mRNA (TNF-α mRNA [3]; Subject 1)	ΔΔCt (mean ± standard deviation, n = 3), TNFα mRNA (TNF-α mRNA [3]; Subject 2)	ΔΔCt (mean ± standard deviation, n = 3), TNFα mRNA (TNF-α mRNA [3]; Subject 3)	ΔΔCt (mean ± standard deviation, n = 3), TNFα mRNA (TNF-α mRNA [3]; Subject 4)	ΔΔCt (mean ± standard deviation, n = 3), TNFα mRNA (TNF-α mRNA [3]; Subject 5)	other results
O=C(O[C@@H]1Cc2c(O)cc(O)cc2O[C@@H]1c1cc(O)c(O)c(O)c1)c1cc(O)c(O)c(O)c1 [EGCG, epigallocatechin gallate]	−0.1 ± 0.02	−0.67 ± 0.48	1.32 ± 0.54	0.81 ± 0.11	−0.99 ± 0.33	1.1 ± 0.14	−0.41 ± 0.29	−1.83 ± 0.20	−1.56 ± 0.46	−0.82 ± 0.34	0.92 ± 0.25	−1.37 ± 0.3	−0.9 ± 0.01	−1.47 ± 0.41	enhanced PHA-induced IL-4 expression in all 7 cases	−1.14 ± 0.32	−0.63 ± 0.66	0.33 ± 0.62	−0.16 ± 0.12	−1.22 ± 0.29	effect on PHA-induced IL-2 expression, in words (IL-2 mRNA [1]): 3 out of 7 persons showed decreases, 1 showed an increase, and 3 were unchanged; ΔΔCt (mean ± standard deviation, n = 3), TNFα mRNA (TNF-α mRNA [3]; Subject 6): −0.66 ± 0.14; ΔΔCt (mean ± standard deviation, n = 3), TNFα mRNA (TNF-α mRNA [3]; Subject 7): −0.94 ± 0.46; effect on PHA-induced TNF-α expression, in words (TNF-α mRNA [3]): showed individual variations; conclusion from CD32A mRNA levels (FIG. 2), in words [4]: would be suitable for use in this individual in a diet optimized for anti-cancer activity
O=c1c(-c2ccc(O)cc2)coc2cc(O)cc(O)c12 [Gen., genistein]	−0.41 ± 0.53	0.90 ± 0.44	0.11 ± 0.23	0.08 ± 0.04	−0.02 ± 1.03	0.00 ± 0.27	−0.28 ± 0.20	−1.83 ± 0.20	−1.56 ± 0.46	−0.82 ± 0.34	−1.04 ± 0.16	−0.45 ± 0.34	−0.34 ± 0.02	0.28 ± 0.25	mainly inactive	−1.14 ± 0.32	−1.01 ± 0.04	0.33 ± 0.62	−0.16 ± 0.12	−0.32 ± 0.54	effect on PHA-induced IL-2 expression, in words (IL-2 mRNA [1]): mainly inactive; plasma concentration [5]: 4000 µM; ΔΔCt (mean ± standard deviation, n = 3), TNFα mRNA (TNF-α mRNA [3]; Subject 6): −0.02 ± 0.20; ΔΔCt (mean ± standard deviation, n = 3), TNFα mRNA (TNF-α mRNA [3]; Subject 7): −0.17 ± 0.18; effect on PHA-induced TNF-α expression, in words (TNF-α mRNA [3]): mainly inactive; conclusion from CD32A mRNA levels (FIG. 2), in words [4]: would be suitable for use in this individual in a diet optimized for anti-cancer activity
phytohemagglutinin [PHA]																					time for TNF-α mRNA induction to reach a plateau (TNF-α mRNA [6]; 100 μg/mL PHA, FIG. 1B): 30 to 60 min; EC50 of induction of TNF-α mRNA expression (TNF-α mRNA [6]; [16]): 10 to 20 µg/mL; time for IL-4 mRNA induction to reach a plateau (IL-4 mRNA [7]; 100 μg/mL PHA, FIG. 1B): 30 to 60 min; EC50 of induction of IL-4 mRNA expression (IL-4 mRNA [7]; [16]): 10 to 20 µg/mL; time for IL-2 mRNA induction to reach a plateau (IL-2 mRNA [8]; 100 μg/mL PHA, FIG. 1B): 30 to 60 min; EC50 of induction of IL-2 mRNA expression (IL-2 mRNA [8]; [16]): 10 to 20 µg/mL
vitamin D [VD]	−0.13 ± 0.07	0.06 ± 0.40	0.00 ± 0.15	−0.31 ± 0.30	−0.45 ± 0.61	−0.55 ± 0.14	−0.86 ± 0.12	−0.17 ± 1.0	0.06 ± 0.15	−0.77 ± 0.40	−0.43 ± 0.17	−1.22 ± 0.17	−0.77 ± 0.09	−1.30 ± 0.22	enhanced IL-4 expression, with 1-3 exceptions	−0.25 ± 1.47	0.14 ± 0.40	−0.04 ± 0.27	0.09 ± 0.16	−1.21 ± 0.14	ΔΔCt (mean ± standard deviation, n = 3), TNFα mRNA (TNF-α mRNA [3]; Subject 6): −0.48 ± 0.04; ΔΔCt (mean ± standard deviation, n = 3), TNFα mRNA (TNF-α mRNA [3]; Subject 7): −0.40 ± 0.15; conclusion from CD32A mRNA levels (FIG. 2), in words [4]: would be suitable for use in this individual in a diet optimized for anti-cancer activity
